Laboratory results from ChEMBL document CHEMBL2074434, “Interaction of cytochrome P450 3A inhibitors with P-glycoprotein” (J Pharmacol Exp Ther, 2002).

Assays:
[1] = target: T1, ATP-dependent translocase ABCB1 (Mus musculus, UniProt P21447); assay: TP_TRANSPORTER: increase in Calcein-AM intracellular accumulation in mdr1a-expressing LLC-PK1 cells; assay type: functional, cell-based
[2] = target: ATP-dependent translocase ABCB1 (Mus musculus, UniProt P06795); assay: TP_TRANSPORTER: increase in Calcein-AM intracellular accumulation in mdr1b-expressing LLC-PK1 cells; assay type: functional, cell-based
Sequence of ATP-dependent translocase ABCB1 (Mus musculus, UniProt P06795) (P06795 whole entry): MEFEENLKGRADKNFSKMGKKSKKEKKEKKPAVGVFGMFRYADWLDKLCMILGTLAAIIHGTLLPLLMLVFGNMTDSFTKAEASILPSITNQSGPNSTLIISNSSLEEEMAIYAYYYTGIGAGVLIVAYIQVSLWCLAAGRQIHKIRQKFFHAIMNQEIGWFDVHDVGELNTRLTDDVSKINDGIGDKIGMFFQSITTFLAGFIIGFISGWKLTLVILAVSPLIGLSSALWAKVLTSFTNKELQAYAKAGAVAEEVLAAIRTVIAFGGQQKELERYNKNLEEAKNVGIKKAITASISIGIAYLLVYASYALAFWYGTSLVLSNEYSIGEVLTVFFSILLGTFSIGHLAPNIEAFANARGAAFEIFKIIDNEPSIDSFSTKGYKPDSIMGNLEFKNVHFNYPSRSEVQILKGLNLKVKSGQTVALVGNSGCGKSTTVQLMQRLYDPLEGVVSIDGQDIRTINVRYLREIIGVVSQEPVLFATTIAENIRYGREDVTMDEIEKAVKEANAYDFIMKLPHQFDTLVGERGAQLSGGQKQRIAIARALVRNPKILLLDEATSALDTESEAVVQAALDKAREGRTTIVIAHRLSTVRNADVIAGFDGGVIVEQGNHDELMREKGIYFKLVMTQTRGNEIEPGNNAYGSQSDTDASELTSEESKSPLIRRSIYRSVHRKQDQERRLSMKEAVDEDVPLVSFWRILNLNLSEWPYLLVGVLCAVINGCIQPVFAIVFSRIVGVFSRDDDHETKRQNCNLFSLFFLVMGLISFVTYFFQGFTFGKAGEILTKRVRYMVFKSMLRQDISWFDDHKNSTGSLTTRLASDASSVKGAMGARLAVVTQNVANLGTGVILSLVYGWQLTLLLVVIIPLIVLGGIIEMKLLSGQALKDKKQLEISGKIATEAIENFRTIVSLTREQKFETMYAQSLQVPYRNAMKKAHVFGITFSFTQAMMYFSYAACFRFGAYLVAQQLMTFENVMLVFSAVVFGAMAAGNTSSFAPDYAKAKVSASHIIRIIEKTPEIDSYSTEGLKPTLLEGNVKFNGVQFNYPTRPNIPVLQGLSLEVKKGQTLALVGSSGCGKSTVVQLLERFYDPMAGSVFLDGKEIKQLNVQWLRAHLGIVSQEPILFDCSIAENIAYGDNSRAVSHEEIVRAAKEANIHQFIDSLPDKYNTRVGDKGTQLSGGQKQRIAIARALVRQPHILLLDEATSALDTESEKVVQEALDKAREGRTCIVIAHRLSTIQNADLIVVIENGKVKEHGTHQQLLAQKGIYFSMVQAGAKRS

[3] = target: ATP-dependent translocase ABCB1 (Homo sapiens, UniProt P08183); assay: TP_TRANSPORTER: transepithelial transport (basal to apical) in MDR1-expressing LLC-PK1 cells; assay type: functional, cell-based; conditions: pig
Sequence of ATP-dependent translocase ABCB1 (Homo sapiens, UniProt P08183) (P08183 whole entry): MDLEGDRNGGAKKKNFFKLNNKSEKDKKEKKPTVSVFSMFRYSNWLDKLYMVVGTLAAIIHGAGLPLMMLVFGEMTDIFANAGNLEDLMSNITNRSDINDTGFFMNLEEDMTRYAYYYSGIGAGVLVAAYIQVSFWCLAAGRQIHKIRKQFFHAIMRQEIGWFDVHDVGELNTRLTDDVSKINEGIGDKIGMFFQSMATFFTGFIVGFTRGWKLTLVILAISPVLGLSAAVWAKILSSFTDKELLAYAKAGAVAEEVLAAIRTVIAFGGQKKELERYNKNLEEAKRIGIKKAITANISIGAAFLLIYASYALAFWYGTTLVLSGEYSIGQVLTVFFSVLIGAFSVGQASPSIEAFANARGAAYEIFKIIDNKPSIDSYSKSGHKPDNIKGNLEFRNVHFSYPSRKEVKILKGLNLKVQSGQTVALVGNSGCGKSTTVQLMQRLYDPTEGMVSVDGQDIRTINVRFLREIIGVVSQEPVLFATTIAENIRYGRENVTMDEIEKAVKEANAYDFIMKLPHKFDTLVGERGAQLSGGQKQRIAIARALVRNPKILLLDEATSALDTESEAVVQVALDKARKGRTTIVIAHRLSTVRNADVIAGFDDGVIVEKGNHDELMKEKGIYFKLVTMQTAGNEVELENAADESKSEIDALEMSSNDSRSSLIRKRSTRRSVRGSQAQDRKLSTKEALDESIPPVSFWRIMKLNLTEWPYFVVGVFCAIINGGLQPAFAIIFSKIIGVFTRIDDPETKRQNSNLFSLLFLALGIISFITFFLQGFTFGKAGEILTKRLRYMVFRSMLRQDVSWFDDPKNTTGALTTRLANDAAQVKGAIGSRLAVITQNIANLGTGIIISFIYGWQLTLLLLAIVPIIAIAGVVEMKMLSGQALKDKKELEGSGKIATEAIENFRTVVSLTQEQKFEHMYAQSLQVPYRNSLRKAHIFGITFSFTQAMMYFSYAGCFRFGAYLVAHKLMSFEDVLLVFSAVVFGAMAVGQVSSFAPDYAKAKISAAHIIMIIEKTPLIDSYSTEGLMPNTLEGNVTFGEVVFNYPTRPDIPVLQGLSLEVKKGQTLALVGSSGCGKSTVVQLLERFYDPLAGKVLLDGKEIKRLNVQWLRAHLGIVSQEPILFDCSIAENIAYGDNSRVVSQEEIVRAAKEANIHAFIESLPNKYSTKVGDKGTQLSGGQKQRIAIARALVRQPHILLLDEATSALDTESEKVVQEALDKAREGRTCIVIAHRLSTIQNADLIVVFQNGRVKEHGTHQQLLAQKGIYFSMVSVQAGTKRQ

[4] = target: T1, ATP-dependent translocase ABCB1; assay: TP_TRANSPORTER: no influence on tissue distribution in mdr1a(-/-) mouse; assay type: functional, organism-based; conditions: in vivo
[5] = target: T1, ATP-dependent translocase ABCB1; assay: TP_TRANSPORTER: transepithelial transport (basal to apical) in mdr1a-expressing LLC-PK1 cell; assay type: functional, cell-based; conditions: pig
[6] = target: T1, ATP-dependent translocase ABCB1; assay: TP_TRANSPORTER: increase in kidney concentration in mdr1a(-/-) mouse; assay type: functional, organism-based; conditions: in vivo
[7] = target: T1, ATP-dependent translocase ABCB1; assay: TP_TRANSPORTER: increase in spleen concentration in mdr1a(-/-) mouse; assay type: functional, organism-based; conditions: in vivo
[8] = target: T1, ATP-dependent translocase ABCB1; assay: TP_TRANSPORTER: increase in lung concentration in mdr1a(-/-) mouse; assay type: functional, organism-based; conditions: in vivo
[9] = target: T1, ATP-dependent translocase ABCB1; assay: TP_TRANSPORTER: increase in liver concentration in mdr1a(-/-) mouse; assay type: functional, organism-based; conditions: in vivo
[10] = target: T1, ATP-dependent translocase ABCB1; assay: TP_TRANSPORTER: increase in heart concentration in mdr1a(-/-) mouse; assay type: functional, organism-based; conditions: in vivo

T1 sequence (P21447 whole entry): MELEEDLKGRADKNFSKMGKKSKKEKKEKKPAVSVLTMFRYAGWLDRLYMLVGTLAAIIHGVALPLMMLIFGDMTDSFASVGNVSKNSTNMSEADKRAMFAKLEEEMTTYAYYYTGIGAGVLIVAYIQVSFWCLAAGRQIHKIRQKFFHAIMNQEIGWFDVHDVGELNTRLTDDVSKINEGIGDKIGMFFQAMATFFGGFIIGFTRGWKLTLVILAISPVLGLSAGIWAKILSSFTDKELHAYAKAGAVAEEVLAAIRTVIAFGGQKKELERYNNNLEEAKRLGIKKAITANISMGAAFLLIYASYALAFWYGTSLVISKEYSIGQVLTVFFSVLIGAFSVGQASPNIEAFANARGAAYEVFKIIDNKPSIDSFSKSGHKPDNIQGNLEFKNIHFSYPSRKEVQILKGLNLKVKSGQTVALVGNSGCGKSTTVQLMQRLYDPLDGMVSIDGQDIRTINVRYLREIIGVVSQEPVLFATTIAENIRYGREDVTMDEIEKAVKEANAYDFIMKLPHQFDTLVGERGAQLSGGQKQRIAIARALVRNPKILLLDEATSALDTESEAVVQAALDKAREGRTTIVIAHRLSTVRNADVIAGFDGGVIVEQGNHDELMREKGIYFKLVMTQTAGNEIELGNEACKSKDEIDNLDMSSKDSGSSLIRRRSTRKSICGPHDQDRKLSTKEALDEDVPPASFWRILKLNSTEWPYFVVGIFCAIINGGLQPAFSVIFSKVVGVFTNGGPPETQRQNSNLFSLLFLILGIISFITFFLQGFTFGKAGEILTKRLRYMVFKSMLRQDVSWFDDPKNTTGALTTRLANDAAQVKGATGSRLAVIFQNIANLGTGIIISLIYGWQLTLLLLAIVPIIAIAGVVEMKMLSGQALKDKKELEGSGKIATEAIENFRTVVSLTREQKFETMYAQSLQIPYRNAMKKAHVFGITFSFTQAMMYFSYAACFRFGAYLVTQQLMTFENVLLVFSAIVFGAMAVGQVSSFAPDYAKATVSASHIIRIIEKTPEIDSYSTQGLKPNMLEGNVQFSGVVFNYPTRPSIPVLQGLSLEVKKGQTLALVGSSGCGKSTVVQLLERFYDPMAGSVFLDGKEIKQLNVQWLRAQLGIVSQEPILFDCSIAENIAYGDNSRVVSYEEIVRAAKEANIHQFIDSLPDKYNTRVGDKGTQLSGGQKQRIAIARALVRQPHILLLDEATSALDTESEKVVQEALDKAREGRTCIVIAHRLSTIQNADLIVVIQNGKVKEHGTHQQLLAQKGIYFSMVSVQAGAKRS

| Compound | Ki [1] [µM] | Ki [2] [µM] | also measured |
| --- | --- | --- | --- |
| CO[C@H]1C[C@H](O[C@H]2[C@H](C)[C@@H](O[C@@H]3O[C@H](C)C[C@H](N(C)C)[C@H]3OC(C)=O)[C@@H](C)C[C@@]3(CO3)C(=O)[C@H](C)[C@@H](OC(C)=O)[C@@H](C)[C@@H](C)OC(=O)[C@@H]2C)O[C@@H](C)[C@@H]1OC(C)=O [TROLEANDOMYCIN] | 217 | > 1000 | – |
| OC(Cn1cncn1)(Cn1cncn1)c1ccc(F)cc1F [FLUCONAZOLE] | > 1000 | > 1000 | Activity [3]: is not a substrate [-]; Activity [4]: is not a substrate [-]; Activity [5]: substrate [+] |
| CC(C)C[C@H]1C(=O)N2CCC[C@H]2[C@]2(O)O[C@](NC(=O)[C@@H]3C=C4c5cccc6[nH]cc(c56)C[C@H]4N(C)C3)(C(C)C)C(=O)N12 [ERGOCRYPTINE] | 43.5 | 26.9 | – |
| C[C@@H](CO)NC(=O)[C@@H]1C=C2c3cccc4[nH]cc(c34)C[C@H]2N(C)C1 [ERGONOVINE] | 118 | > 1000 | – |
| CC(C)[C@H]1C(=O)N2CCC[C@H]2[C@]2(O)O[C@](NC(=O)[C@@H]3C=C4c5cccc6[nH]cc(c56)C[C@H]4N(C)C3)(C(C)C)C(=O)N12 [ERGOCORNINE] | 272 | 19.1 | – |
| COC(=O)[C@H]1[C@H]2C[C@@H]3c4[nH]c5cc(OC)ccc5c4CCN3C[C@H]2C[C@@H](OC(=O)c2cc(OC)c(OC)c(OC)c2)[C@@H]1OC [RESERPINE] | 4.03 | 17.9 | Activity [6]: substrate [+]; Activity [7]: substrate [+]; Activity [8]: substrate [+]; Activity [9]: substrate [+]; Activity [10]: substrate [+]; Activity [5]: substrate [+] |
| Clc1ccc(COC(Cn2ccnc2)c2ccc(Cl)cc2Cl)c(Cl)c1 (stereo not given) [MICONAZOLE] | 22.2 | – | – |
| CC(C)[C@@]1(NC(=O)[C@@H]2C[C@@H]3c4cccc5[nH]cc(c45)C[C@H]3N(C)C2)O[C@@]2(O)[C@@H]3CCCN3C(=O)[C@H](Cc3ccccc3)N2C1=O [DIHYDROERGOCRISTINE] | 111 | 167 | Activity [3]: substrate [+] |
| CN1C[C@H](C(=O)N[C@]2(C)O[C@@]3(O)[C@@H]4CCCN4C(=O)[C@H](Cc4ccccc4)N3C2=O)C[C@@H]2c3cccc4[nH]cc(c34)C[C@H]21 [DIHYDROERGOTAMINE] | > 1000 | > 1000 | – |
| CC(C)C[C@H]1C(=O)N2CCC[C@H]2[C@]2(O)O[C@](NC(=O)[C@@H]3C=C4c5cccc6[nH]c(Br)c(c56)C[C@H]4N(C)C3)(C(C)C)C(=O)N12 [BROMOCRIPTINE] | 7.48 | 6.39 | – |
| CC(C)[C@@]1(NC(=O)[C@@H]2C=C3c4cccc5[nH]cc(c45)C[C@H]3N(C)C2)O[C@@]2(O)[C@@H]3CCCN3C(=O)[C@H](Cc3ccccc3)N2C1=O [ERGOCRISTINE] | 39.4 | 15.3 | – |
| Clc1ccccc1C(c1ccccc1)(c1ccccc1)n1ccnc1 [CLOTRIMAZOLE] | 18.3 | 25.1 | – |
| CC[C@H]1OC(=O)[C@H](C)[C@@H](O[C@H]2C[C@@](C)(OC)[C@@H](O)[C@H](C)O2)[C@H](C)[C@@H](O[C@@H]2O[C@H](C)C[C@H](N(C)C)[C@H]2O)[C@](C)(O)C[C@@H](C)C(=O)[C@H](C)[C@@H](O)[C@]1(C)O [ERYTHROMYCIN] | > 1000 | – | – |
| CN1C[C@H](C(=O)N[C@]2(C)O[C@@]3(O)[C@@H]4CCCN4C(=O)[C@H](Cc4ccccc4)N3C2=O)C=C2c3cccc4[nH]cc(c34)C[C@H]21 [ERGOTAMINE] | 189 | 18 | – |
| CC(C)C[C@H]1C(=O)N2CCC[C@H]2[C@]2(O)O[C@](NC(=O)[C@@H]3C[C@@H]4c5cccc6[nH]cc(c56)C[C@H]4N(C)C3)(C(C)C)C(=O)N12 [DIHYDROERGOCRYPTINE] | 333 | 160 | Activity [6]: substrate [+]; Activity [5]: substrate [+] |
